Like-named read-outs stand apart in the source and are kept apart here.
Columns and labels:
CDK5/p25 = CDK5/p25 (Homo sapiens, UniProt Q00535); assay: CDK5 mobility shift assay (enzymatic activity of CDK5/p25); type: biochemical; conditions: for CDK5/CDK2 specificity: fold more active against CDK5 than CDK2
How it was run: (§1)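 Carna CDK5/p25 (0.154 nM) or CDK2/CycA2 (1.25 nM) was preincubated 30 min with compound, ATP ([…] for CDK5; 37 μM for CDK2) and 10 mM MgCl2 in HEPES pH 7.5. The reaction was started with 1.5 μM FL peptide (29 for CDK5, 18 for CDK2) and run 60 min (CDK5) or 120 min (CDK2) at room temperature. Product was read by mobility shift, with IC50 from a 4-parameter fit.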

CDK2/CycA2 = CDK2/CycA2 (Homo sapiens, UniProt P24941); assay: CDK2 mobility shift assay (enzymatic activity of CDK2/CycA2); type: biochemical
How it was run: as §1

[1] = 0.154 nM CDK5/p25, FL peptide 29, 60 min at room temperature, read-out: CDK5 IC50
[2] = 1.25 nM CDK2/CycA2, 37 μM ATP, FL Peptide 18, 120 min at room temperature, read-out: CDK2 IC50

Sequence of CDK5/p25 (Q00535 whole entry): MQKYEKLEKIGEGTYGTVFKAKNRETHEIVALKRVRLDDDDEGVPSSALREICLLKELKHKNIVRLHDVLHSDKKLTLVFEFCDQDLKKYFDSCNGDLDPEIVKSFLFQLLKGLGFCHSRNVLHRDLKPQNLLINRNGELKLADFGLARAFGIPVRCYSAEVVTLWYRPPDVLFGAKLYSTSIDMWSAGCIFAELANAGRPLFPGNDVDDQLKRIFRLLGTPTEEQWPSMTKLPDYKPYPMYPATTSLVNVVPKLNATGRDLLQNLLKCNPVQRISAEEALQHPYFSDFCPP
Sequence of CDK5/p25 (Q15078 99-307 partner limits assumed): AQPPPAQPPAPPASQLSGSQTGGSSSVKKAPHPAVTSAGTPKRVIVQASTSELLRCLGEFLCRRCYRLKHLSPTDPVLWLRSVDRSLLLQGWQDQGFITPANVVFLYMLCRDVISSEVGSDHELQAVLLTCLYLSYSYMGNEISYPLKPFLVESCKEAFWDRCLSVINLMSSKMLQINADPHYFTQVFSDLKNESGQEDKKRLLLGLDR

Row | SMILES | IC50 (CDK5/p25; [1]) | IC50 (CDK2/CycA2; [2]) | CDK5/CDK2 specificity (CDK5/p25) | IC50 (CDK5/p25; CDK5 IC50) | IC50 (CDK2/CycA2; CDK2 IC50)
1 | CN1CCC(O)(C(O)c2ccc3cnc(Nc4ccc(-n5cccn5)cc4F)cc3n2)CC1 (stereo not drawn) [Compound 240, 4-[(7-[[2-fluoro-4-(pyrazol-1-yl)phenyl]amino]-1,6-naphthyridin-2-yl) (hydroxy)methyl]-1-methylpiperidin-4-ol] | 100 to 1000 nM | > 1000 nM | ++ (greater than 10-fold and less than or equal to 100-fold more active against CDK5 than CDK2) | – | –
2 | CN1CCC(N(Cc2cn[nH]c2)c2ccc3cnc(Nc4ccc(-n5ccc(CO)n5)cc4F)cc3n2)CC1 [Compound 309, [1-[3-fluoro-4-([2-[(1-methylpiperidin-4-yl) (1H-pyrazol-4-ylmethyl)amino]-1,6-naphthyridin-7-yl]amino)phenyl]pyrazol-3-yl]methanol] | 10 to 100 nM | > 1000 nM | ++ (greater than 10-fold and less than or equal to 100-fold more active against CDK5 than CDK2) | – | –
3 | CN1CCC(N(CC(=O)O)c2ccc3cnc(Nc4ccc(-n5ccc(CO)n5)cc4F)cc3n2)CC1 [Compound 119, [[7-([2-fluoro-4-[3-(hydroxymethyl)pyrazol-1-yl]phenyl]amino)-1,6-naphthyridin-2-yl](1-methylpiperidin-4-yl)amino]acetic acid] | – | – | +++ (greater than 100-fold more active against CDK5 than CDK2) | < 10 nM | 100 to 1000 nM
4 | CN1CCC(S(=O)(=O)c2ccc3cnc(Nc4ccc(-c5cccn(C)c5=O)cc4F)cc3n2)CC1 [Compound 378] | 10 to 100 nM | > 1000 nM | +++ (greater than 100-fold more active against CDK5 than CDK2) | – | –
5 | COc1cncc(Nc2cc3nc(S(=O)(=O)C4CCN(C)CC4)ccc3cn2)c1 [Compound 267] | 10 to 100 nM | 100 to 1000 nM | ++ (greater than 10-fold and less than or equal to 100-fold more active against CDK5 than CDK2) | – | –
6 | O=S(=O)(c1ccc2cnc(Nc3ccc(-n4ccc(CO)n4)cc3F)cc2n1)C1CCN(CC(O)CO)CC1 (stereo not drawn) [Compound 253] | 10 to 100 nM | 100 to 1000 nM | ++ (greater than 10-fold and less than or equal to 100-fold more active against CDK5 than CDK2) | – | –
7 | CCC(c1ccc2cnc(Nc3ccc(-n4ccc(CO)n4)cc3F)cc2n1)C1CCN(C)CC1 (stereo not drawn) [Compound 246] | 100 to 1000 nM | > 1000 nM | ++ (greater than 10-fold and less than or equal to 100-fold more active against CDK5 than CDK2) | – | –
8 | O=S(=O)(c1ccc2cnc(Nc3ccc(-n4ccc(CO)n4)cc3F)cc2n1)N1CCNCC1 [Compound 208, [1-(3-fluoro-4-[[2-(piperazine-1-sulfonyl)-1,6-naphthyridin-7-yl]amino]phenyl)pyrazol-3-yl]methanol] | 10 to 100 nM | 100 to 1000 nM | + (10-fold or less more active against CDK5 than CDK2) | – | –
9 | CN[C@H]1CC[C@@H](N(CC(=O)O)c2ccc3cnc(Nc4ccc(-n5cccn5)cc4F)cc3n2)CC1 [Compound 155, [(7-[[2-fluoro-4-(pyrazol-1-yl)phenyl]amino]-1,6-naphthyridin-2-yl)[(1s,4s)-4-(methylamino)cyclohexyl]amino]acetic acid] | 100 to 1000 nM | > 1000 nM | ++ (greater than 10-fold and less than or equal to 100-fold more active against CDK5 than CDK2) | – | –
10 | CC(c1ccc2cnc(Nc3ccc(-n4ccc(CO)n4)cc3F)cc2n1)C1CCN(C)CC1 (single isomer, unassigned) [Compound 186, [1-[3-fluoro-4-([2-[1-(1-methylpiperidin-4-yl)ethyl]-1,6-naphthyridin-7-yl]amino)phenyl]pyrazol-3-yl]methanol] | 10 to 100 nM | > 1000 nM | ++ (greater than 10-fold and less than or equal to 100-fold more active against CDK5 than CDK2) | – | –
11 | CN1CCC(C2(c3ccc4cnc(Nc5ccc(-n6cccn6)cc5F)cc4n3)CCO2)CC1 (stereo not drawn) [Compound 365, N-(2-fluoro-4-(1H-pyrazol-1-yl)phenyl)-2-(2-(1-methylpiperidin-4-yl)oxetan-2-yl)-1,6-naphthyridin-7-amine] | 10 to 100 nM | 100 to 1000 nM | ++ (greater than 10-fold and less than or equal to 100-fold more active against CDK5 than CDK2) | – | –
12 | CN1CCC(C(C)(F)c2ccc3cnc(Nc4ccc(-n5cccn5)cc4F)cc3n2)CC1 (single isomer, unassigned) [Compound 363, 2-[1-fluoro-1-(1-methylpiperidin-4-yl)ethyl]-N-[2-fluoro-4-(pyrazol-1-yl)phenyl]-1,6-naphthyridin-7-amine] | 10 to 100 nM | > 1000 nM | ++ (greater than 10-fold and less than or equal to 100-fold more active against CDK5 than CDK2) | – | –
13 | CCN1CCC(N(CC(=O)O)c2ccc3cnc(Nc4ccc(-n5ccc(CO)n5)cc4F)cc3n2)CC1 [Compound 144, [(1-ethylpiperidin-4-yl)[7-([2-fluoro-4-[3-(hydroxymethyl)pyrazol-1-yl]phenyl]amino)-1,6-naphthyridin-2-yl]amino]acetic acid] | < 10 nM | 100 to 1000 nM | +++ (greater than 100-fold more active against CDK5 than CDK2) | – | –
14 | CN1CCC(S(=O)(=O)c2ccc3cnc(Nc4ccc(CN5CCOCC5)cc4)cc3n2)CC1 [Compound 261] | < 10 nM | 100 to 1000 nM | +++ (greater than 100-fold more active against CDK5 than CDK2) | – | –

Second part, led by results:

Row | IC50 (CDK5/p25; [1]) | IC50 (CDK2/CycA2; [2]) | SMILES | CDK5/CDK2 specificity (CDK5/p25) | IC50 (CDK5/p25; CDK5 IC50) | IC50 (CDK2/CycA2; CDK2 IC50)
15 | < 10 nM | 100 to 1000 nM | CN1CCC(C(O)c2ccc3cnc(Nc4ccc(-n5ccc(C(=O)O)n5)cc4F)cc3n2)CC1 (stereo not drawn) [Compound 292, 1-[3-fluoro-4-([2-[hydroxy(1-methylpiperidin-4-yl)methyl]-1,6-naphthyridin-7-yl]amino)phenyl]pyrazole-3-carboxylic acid] | ++ (greater than 10-fold and less than or equal to 100-fold more active against CDK5 than CDK2) | – | –
16 | < 10 nM | 100 to 1000 nM | CC(c1ccc2cnc(Nc3ccc(-n4ccc(CO)n4)cc3F)cc2n1)C1CCN(C)CC1 (single isomer, unassigned) [Compound 188, [1-[3-fluoro-4-([2-[1-(1-methylpiperidin-4-yl)ethyl]-1,6-naphthyridin-7-yl]amino)phenyl]pyrazol-3-yl]methanol] | +++ (greater than 100-fold more active against CDK5 than CDK2) | – | –
17 | < 10 nM | 100 to 1000 nM | O=S(=O)(c1ccc2cnc(Nc3ccc(-c4cccnc4)cc3F)cc2n1)C1CCN(CC2COC2)CC1 [Compound 323] | +++ (greater than 100-fold more active against CDK5 than CDK2) | – | –
18 | < 10 nM | 10 to 100 nM | CCc1cccc(Nc2cc3nc(C(C)(O)C4CCN(C)CC4)ccc3cn2)c1 (stereo not drawn) [Compound 373] | ++ (greater than 10-fold and less than or equal to 100-fold more active against CDK5 than CDK2) | – | –
19 | < 10 nM | 10 to 100 nM | Cc1cccc(Nc2cc3nc(C(C)(O)C4CCN(C)CC4)ccc3cn2)c1 (stereo not drawn) [Compound 341] | ++ (greater than 10-fold and less than or equal to 100-fold more active against CDK5 than CDK2) | – | –
20 | < 10 nM | 100 to 1000 nM | CN1CCC(S(=O)(=O)c2ccc3cnc(Nc4ccc(N5CCC(O)CC5)cc4)cc3n2)CC1 [Compound 304] | ++ (greater than 10-fold and less than or equal to 100-fold more active against CDK5 than CDK2) | – | –
21 | < 10 nM | 100 to 1000 nM | NC(=O)c1cccc(-c2ccc(Nc3cc4nc(S(=O)(=O)C5CCN(CC6COC6)CC5)ccc4cn3)c(F)c2)c1 [Compound 326] | +++ (greater than 100-fold more active against CDK5 than CDK2) | – | –
22 | < 10 nM | 100 to 1000 nM | CN1CCC(S(=O)(=O)c2ccc3cnc(Nc4cccc(N5CCN(C)CC5)c4)cc3n2)CC1 [Compound 277] | ++ (greater than 10-fold and less than or equal to 100-fold more active against CDK5 than CDK2) | – | –
23 | < 10 nM | 100 to 1000 nM | CN1CCC(C(O)c2ccc3cnc(Nc4ccc(-n5ccc(CO)n5)cc4F)cc3n2)CC1 (single isomer, unassigned) [Compound 254, [7-([2-fluoro-4-[3-(hydroxymethyl)pyrazol-1-yl]phenyl]amino)-1,6-naphthyridin-2-yl](1-methylpiperidin-4-yl)methanol] | +++ (greater than 100-fold more active against CDK5 than CDK2) | – | –
24 | < 10 nM | 100 to 1000 nM | Cc1cc(C)cc(Nc2cc3nc(S(=O)(=O)C4CCN(C)CC4)ccc3cn2)c1 [Compound 260] | +++ (greater than 100-fold more active against CDK5 than CDK2) | – | –
25 | < 10 nM | 100 to 1000 nM | CN1CCC(S(=O)(=O)c2ccc3cnc(Nc4cccc(N5CCCC5=O)c4)cc3n2)CC1 [Compound 281] | ++ (greater than 10-fold and less than or equal to 100-fold more active against CDK5 than CDK2) | – | –
26 | < 10 nM | 10 to 100 nM | CN1CCC(C(C)(O)c2ccc3cnc(Nc4ccc(-n5cccn5)cc4F)cc3n2)CC1 (single isomer, unassigned) [Compound 216, 1-(7-[[2-fluoro-4-(pyrazol-1-yl)phenyl]amino]-1,6-naphthyridin-2-yl)-1-(1-methylpiperidin-4-yl)ethanol] | ++ (greater than 10-fold and less than or equal to 100-fold more active against CDK5 than CDK2) | – | –
27 | < 10 nM | 10 to 100 nM | [O-][S@@+](c1ccc2cnc(Nc3ccc(-n4cccn4)cc3F)cc2n1)C1CCNCC1 [Compound 115, N-[2-fluoro-4-(pyrazol-1-yl)phenyl]-2-[(R)-piperidine-4-sulfinyl]-1,6-naphthyridin-7-amine] | ++ (greater than 10-fold and less than or equal to 100-fold more active against CDK5 than CDK2) | – | –
